Experiments:
Jurkat cells = experiment: IL-2 assay of Jurkat cells (ELISA); format: cell-based; details: CD3/CD28 antibodies, 48 hours
Method: The concentration of Jurkat cells growing in the logarithmic phase was adjusted to 1×10^6/mL. 100 μL/well of the cells was taken and plated in a 96-well round-bottom plate coated with CD3 antibodies. The cells were treated with different concentrations of the compounds with the addition of CD28 antibodies for 48 hours. The supernatant of the cell culture was collected, diluted 5-fold, and added to an ELISA plate coated with IL-2. The enzyme-linked immunosorbent assay was performed according to the kit instructions (Dakewe, 1110202). OD570 and OD450 were read with Envision, and the data were analyzed by Prism.

human HPK1 = human HPK1 (Homo sapiens (Human), UniProt Q92918); experiment: 33P isotope-labeled kinase activity assay (Method 1); format: biochemical; details: HPK1 enzyme concentration 8.1 nM; ATP concentration 15 μM
Method: Method 1: The IC50 value was assayed by ^33P isotope-labeled kinase activity assay to evaluate the inhibitory ability of a test compound on human HPK1.
Enzyme buffer conditions: 50 mM Hepes (pH 7.5), 10 mM MgCl2, 1 mM EGTA, 0.01% Brij35, 2 mM DTT.
Assay steps: A compound was diluted 3-fold with DMSO in a dilution plate, with a final initial concentration of […] and 10 concentration gradient points. The compound was diluted 50-fold into the kinase reaction buffer, and the mixture was shaken on a shaker for 20 minutes. The kinase was prepared with the enzyme reaction buffer. 2 μL of kinase was added to each well of a reaction plate. 1 μL of the diluted compound in the buffer was added to each well. The plate was sealed with a sealing film, centrifuged at 1000 g for 30 seconds, and placed at room temperature for 10 minutes. The mixed solution of ATP/MBP was prepared with the enzyme reaction buffer. 2 μL of the mixed solution of ATP/MBP was added to the reaction plate. The plate was sealed with a sealing film, and centrifuged at 1000 g for 30 seconds. The mixture in the plate was reacted at room temperature for 60 minutes. […] The plate was incubated at 25° C. for 40 min. […] The plate was incubated at 25° C. for 40 min. The RLU (relative luminescence unit) signal was read with a BMG microplate reader, and the signal intensity was used to characterize the activity of the kinase.

Sequence of human HPK1 (Q92918 whole entry): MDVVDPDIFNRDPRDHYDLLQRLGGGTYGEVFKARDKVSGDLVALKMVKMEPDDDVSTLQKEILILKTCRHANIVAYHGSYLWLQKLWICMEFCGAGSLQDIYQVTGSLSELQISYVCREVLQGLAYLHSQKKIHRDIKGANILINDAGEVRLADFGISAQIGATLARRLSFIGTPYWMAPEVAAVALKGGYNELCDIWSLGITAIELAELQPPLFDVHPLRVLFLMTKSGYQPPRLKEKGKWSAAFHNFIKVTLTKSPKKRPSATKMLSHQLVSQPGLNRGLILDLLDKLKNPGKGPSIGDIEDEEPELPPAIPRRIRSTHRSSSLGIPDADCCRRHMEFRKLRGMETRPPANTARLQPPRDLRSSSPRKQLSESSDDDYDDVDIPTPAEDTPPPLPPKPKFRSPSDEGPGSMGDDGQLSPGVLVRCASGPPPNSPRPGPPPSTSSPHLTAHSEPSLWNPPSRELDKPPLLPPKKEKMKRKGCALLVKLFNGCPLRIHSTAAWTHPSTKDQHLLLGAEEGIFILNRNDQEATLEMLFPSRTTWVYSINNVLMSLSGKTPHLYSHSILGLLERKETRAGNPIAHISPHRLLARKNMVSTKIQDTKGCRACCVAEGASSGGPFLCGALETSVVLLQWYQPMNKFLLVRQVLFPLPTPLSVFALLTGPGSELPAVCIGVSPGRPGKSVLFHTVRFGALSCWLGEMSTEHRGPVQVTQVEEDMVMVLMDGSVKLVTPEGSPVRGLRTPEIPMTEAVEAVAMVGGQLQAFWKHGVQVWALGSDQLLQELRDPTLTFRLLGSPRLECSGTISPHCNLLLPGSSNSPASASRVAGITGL

Row | EC50 (Jurkat cells) | IC50 (human HPK1) | EC50 (Jurkat cells; Homo sapiens) | SMILES
1 | 0.71 µM | 0.003 µM |  | Cn1ccc2c(-c3ccc(Nc4ccc5c(n4)OC[C@H]4CNCCN54)c4c3CNC4=O)ccnc21 [Compound 5]
2 |  | 0.008 µM | 0.32 µM | CCN1CCN2c3ccc(Nc4ccc(-c5ccnc6c5ccn6C)c5c4C(=O)NC5)nc3OC[C@H]2C1 [Compound 6]
